Measured values taken from ChEMBL document CHEMBL1201862, “PubChem BioAssay data set” (2004).
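The compound was tested at five concentrations on cells cultured in 96-well plates, with a 48-hour exposure period. GI50: concentration for 50% inhibition of growth.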 Calls of active or inactive are those of the source. Rule as the data show it: active = GI50 up to about 1.1 µM and inactive = higher.

Columns and labels:
Assay in all cases: growth of human tumour cells (NCI), 48 h
786-0 = system: 786-0
CAKI-1 = system: CAKI-1
CCRF-CEM = system: CCRF-CEM
COLO 205 = system: COLO 205
EKVX = system: EKVX
HOP-62 = system: HOP-62
K562 = system: K562
M14 = system: M14
Malme-3M = system: Malme-3M
NCI-H226 = system: NCI-H226
NCI-H460 = system: NCI-H460
NCI/ADR-RES = system: NCI/ADR-RES
OVCAR-5 = system: OVCAR-5
RXF 393 = system: RXF 393
SF-268 = system: SF-268
SF-539 = system: SF-539
SK-MEL-5 = system: SK-MEL-5
SK-OV-3 = system: SK-OV-3
U-251 = system: U-251
UO-31 = system: UO-31

Row | Structure (SMILES) | GI50 (786-0) | GI50 (CAKI-1) | GI50 (CCRF-CEM) | GI50 (COLO 205) | GI50 (EKVX) | GI50 (HOP-62) | GI50 (K562) | GI50 (M14) | GI50 (Malme-3M) | GI50 (NCI-H226) | GI50 (NCI-H460) | GI50 (NCI/ADR-RES) | GI50 (OVCAR-5) | GI50 (RXF 393) | GI50 (SF-268) | GI50 (SF-539) | GI50 (SK-MEL-5) | GI50 (SK-OV-3) | GI50 (U-251) | GI50 (UO-31)
1 | CC(=O)O[C@@H]1C2=C(C)C=C(O2)[C@H]2O[C@]2(C)C[C@H]2C=C(C(=O)O2)[C@H](OC(C)=O)CC1[C@@]1(C)CO1 (stereo not given in full) | 23.9 µM (inactive) | 24.2 µM (inactive) | 8.59 µM (inactive) | 14.1 µM (inactive) | 26.2 µM (inactive) | 23 µM (inactive) | 17 µM (inactive) | 23.8 µM (inactive) | 17.5 µM (inactive) | > 100 µM (inactive) | 37 µM (inactive) | 29.4 µM (inactive) | 26.4 µM (inactive) | 17.2 µM (inactive) | 42 µM (inactive) | 29.5 µM (inactive) | 35.7 µM (inactive) | > 100 µM (inactive) | 19.1 µM (inactive) | 20.1 µM (inactive)
2 | C/C(=C\c1ccccc1)C(=O)NCc1ccc(C(=O)NCCc2c[nH]c3ccccc23)cc1 | 76 µM (inactive) | > 100 µM (inactive) | 2.39 µM (inactive) | 37.6 µM (inactive) | 48.9 µM (inactive) | 82 µM (inactive) | > 100 µM (inactive) | > 100 µM (inactive) | > 100 µM (inactive) | > 100 µM (inactive) | 25.9 µM (inactive) | > 100 µM (inactive) | > 100 µM (inactive) | > 100 µM (inactive) | > 100 µM (inactive) | > 100 µM (inactive) | 50.5 µM (inactive) | > 100 µM (inactive) | > 100 µM (inactive) | 51.6 µM (inactive)
3 | COc1cc(C=C2C(C)=NN(c3cccc(Cl)c3)C23SCC(=O)N3c2nc3ccccc3s2)ccc1O (stereo not given) | 29.5 µM (inactive) | 29.6 µM (inactive) | 4.56 µM (inactive) | 16.9 µM (inactive) | 39.5 µM (inactive) | 26 µM (inactive) | 17.3 µM (inactive) | 40.3 µM (inactive) | 16.5 µM (inactive) | 35.1 µM (inactive) | 35.6 µM (inactive) | 33 µM (inactive) | 46.3 µM (inactive) | 29.2 µM (inactive) | 23.2 µM (inactive) | 24.3 µM (inactive) | 18.2 µM (inactive) | 21.4 µM (inactive) | 18.8 µM (inactive) | 30.6 µM (inactive)
4 | C[n+]1ccc(Nc2ccc(NC(=O)c3ccc(Nc4cc[n+](C)c5ccc([N+](=O)[O-])cc45)cc3[N+](=O)[O-])cc2)cc1 | 27.4 µM (inactive) | > 73.1 µM (inactive) | 33.2 µM (inactive) | 22.5 µM (inactive) | 47.6 µM (inactive) | 47.1 µM (inactive) | 20.8 µM (inactive) | 63.4 µM (inactive) | 19.5 µM (inactive) | 50.4 µM (inactive) | 23.7 µM (inactive) | > 52.4 µM (inactive) | > 100 µM (inactive) | > 83.8 µM (inactive) | 30.9 µM (inactive) | 27 µM (inactive) | 23.3 µM (inactive) | 57.8 µM (inactive) | 21.7 µM (inactive) | 47.6 µM (inactive)
5 | Cc1cnc2[nH]c(-c3cccc(F)c3)cc(=O)c2c1 | 0.0384 µM (active) | 0.0317 µM (active) | 0.0353 µM (active) | 0.0214 µM (active) | 0.2 µM (active) | 0.0662 µM (active) | 0.0266 µM (active) | 0.0342 µM (active) | 0.0232 µM (active) | 0.0432 µM (active) | 0.0411 µM (active) | 0.0146 µM (active) | 0.0738 µM (active) | 0.0418 µM (active) | 0.0705 µM (active) | 0.0326 µM (active) | 0.0329 µM (active) | 0.0368 µM (active) | 0.0405 µM (active) | 0.0724 µM (active)
6 | Cc1ccc(S(=O)(=O)NNC(=S)Nc2cccc3ccccc23)cc1 | 14.2 µM (inactive) | 55.7 µM (inactive) | 34.7 µM (inactive) | 36.8 µM (inactive) | 38.3 µM (inactive) | 59.3 µM (inactive) | 35.5 µM (inactive) | 43.2 µM (inactive) | 33.3 µM (inactive) | 29.4 µM (inactive) | > 100 µM (inactive) | 38.1 µM (inactive) | 89.3 µM (inactive) | 85.9 µM (inactive) | 70.6 µM (inactive) | 80.4 µM (inactive) | 17.8 µM (inactive) | 43.3 µM (inactive) | 40.6 µM (inactive) | 43.4 µM (inactive)
7 | CC1CC[C@@]2(OC1)OC1C[C@H]3[C@@H]4CC[C@H]5CC(OC6OC(CO)C(O)C(OC7OC(CO)C(OC8OC(CO)C(O)C(OC9OC(CO)C(O)C(O)C9O)C8OC8OC(CO)C(O)C(O)C8O)C(O)C7O)C6O)[C@H](O)CC5(C)[C@H]4CCC3(C)C1[C@@H]2C (stereo not given in full) | 1.88 µM (inactive) | 4.11 µM (inactive) | 2.08 µM (inactive) | 1.95 µM (inactive) | 4.15 µM (inactive) | 2.28 µM (inactive) | 3.37 µM (inactive) | 9.04 µM (inactive) | 8.18 µM (inactive) | 6.53 µM (inactive) | 7.06 µM (inactive) | 4.72 µM (inactive) | 5.33 µM (inactive) | 1.34 µM (inactive) | 5 µM (inactive) | 1.87 µM (inactive) | 6.95 µM (inactive) | 6.95 µM (inactive) | 2.7 µM (inactive) | 2 µM (inactive)
8 | CCc1nc(N)nc(N)c1-c1ccc(NCCc2ccccc2)c([N+](=O)[O-])c1 | 0.211 µM (active) | 0.39 µM (active) | 0.297 µM (active) | 1.11 µM (active) | 3.34 µM (inactive) | 1.64 µM (inactive) | 0.0325 µM (active) | 0.276 µM (active) | 2.38 µM (inactive) | 6.05 µM (inactive) | 0.0687 µM (active) | 0.716 µM (active) | 17.2 µM (inactive) | 3.55 µM (inactive) | 0.527 µM (active) | 0.741 µM (active) | 0.486 µM (active) | 16.5 µM (inactive) | 0.364 µM (active) | 1.86 µM (inactive)
9 | CC(C)(C)OC(=O)NC(Cc1ccc(OC(C)(C)C)cc1)C(=O)N[C@H]1CCC[C@H]1C(=O)NC(Cc1ccccc1)C(=O)N1CCCC1C(N)=O (stereo not given in full) | > 100 µM (inactive) | > 100 µM (inactive) | > 100 µM (inactive) | > 100 µM (inactive) | > 100 µM (inactive) | > 100 µM (inactive) | > 100 µM (inactive) | > 100 µM (inactive) | > 100 µM (inactive) | > 100 µM (inactive) | > 100 µM (inactive) | > 100 µM (inactive) | > 100 µM (inactive) | > 100 µM (inactive) | > 100 µM (inactive) | > 100 µM (inactive) | > 100 µM (inactive) | > 100 µM (inactive) | > 100 µM (inactive) | > 100 µM (inactive)
10 | O=C1/C(=C/c2ccc(O)cc2)CCc2ccccc21 | 16.7 µM (inactive) | 31.3 µM (inactive) | 1.7 µM (inactive) | 22 µM (inactive) | 23 µM (inactive) | 22.9 µM (inactive) | 13.6 µM (inactive) | 20.2 µM (inactive) | 20.7 µM (inactive) | 24.5 µM (inactive) | 29.3 µM (inactive) | 12.7 µM (inactive) | 35.7 µM (inactive) | 17.1 µM (inactive) | 16.1 µM (inactive) | 18 µM (inactive) | 16.9 µM (inactive) | > 55.6 µM (inactive) | 27.6 µM (inactive) | 19.6 µM (inactive)
11 | C(=N\Nc1ccc(-c2nc3ccccc3[nH]2)cc1)/c1c(-c2ccc(Cc3ccccc3)cc2)[nH]c2ccccc12 | 3.3 µM (inactive) | 14.3 µM (inactive) | 5.06 µM (inactive) | 3.94 µM (inactive) | 20.4 µM (inactive) | 19.6 µM (inactive) | 4.46 µM (inactive) | 4.48 µM (inactive) | 2.49 µM (inactive) | > 94.4 µM (inactive) | 10.8 µM (inactive) | 5.31 µM (inactive) | 26.1 µM (inactive) | 2.29 µM (inactive) | 0.925 µM (active) | 5.74 µM (inactive) | 6.41 µM (inactive) | 21.6 µM (inactive) | 6.01 µM (inactive) | 10.8 µM (inactive)
12 | CC(C)OC(=O)c1ccc(CCC2=CC(=O)C(Br)=CC2=O)cc1 | 16.5 µM (inactive) | 20.6 µM (inactive) | 0.783 µM (active) | 11.9 µM (inactive) | 16.3 µM (inactive) | 29.6 µM (inactive) | 2.84 µM (inactive) | 16.4 µM (inactive) | 15.7 µM (inactive) | 19.8 µM (inactive) | 20.7 µM (inactive) | 14.5 µM (inactive) | 22.1 µM (inactive) | 17.1 µM (inactive) | 16 µM (inactive) | 19.2 µM (inactive) | 12.8 µM (inactive) | 40.6 µM (inactive) | 15.6 µM (inactive) | 13.8 µM (inactive)
13 | Cc1ccccc1/N=N/c1ccc(/N=N/c2c(O)ccc3cc(S(=O)(=O)O)cc(S(=O)(=O)O)c23)c(C)c1 | > 100 µM (inactive) | > 100 µM (inactive) | > 100 µM (inactive) | > 100 µM (inactive) | > 100 µM (inactive) | > 100 µM (inactive) | > 100 µM (inactive) | > 100 µM (inactive) | > 100 µM (inactive) | > 100 µM (inactive) | > 100 µM (inactive) | > 100 µM (inactive) | > 100 µM (inactive) | > 100 µM (inactive) | > 100 µM (inactive) | > 100 µM (inactive) | > 100 µM (inactive) | > 100 µM (inactive) | > 100 µM (inactive) | > 100 µM (inactive)
